One compound from US20230348468A1, “1H-PYRAZOLO[4,3-d]PYRIMIDINE COMPOUNDS AS TOLL-LIKE RECEPTOR 7 (TLR7) AGONISTS” (BRISTOL-MYERS SQUIBB COMPANY, priority 2020, published 2023) can be followed below.

The target in experiment [1] is T1, human TLR7 (Homo sapiens, UniProt Q9NYK1).
T1 construct: host or cells: HEK-Blue TLR7 cells (engineered human embryonic kidney cells)
T1 sequence (Q9NYK1 27-1049): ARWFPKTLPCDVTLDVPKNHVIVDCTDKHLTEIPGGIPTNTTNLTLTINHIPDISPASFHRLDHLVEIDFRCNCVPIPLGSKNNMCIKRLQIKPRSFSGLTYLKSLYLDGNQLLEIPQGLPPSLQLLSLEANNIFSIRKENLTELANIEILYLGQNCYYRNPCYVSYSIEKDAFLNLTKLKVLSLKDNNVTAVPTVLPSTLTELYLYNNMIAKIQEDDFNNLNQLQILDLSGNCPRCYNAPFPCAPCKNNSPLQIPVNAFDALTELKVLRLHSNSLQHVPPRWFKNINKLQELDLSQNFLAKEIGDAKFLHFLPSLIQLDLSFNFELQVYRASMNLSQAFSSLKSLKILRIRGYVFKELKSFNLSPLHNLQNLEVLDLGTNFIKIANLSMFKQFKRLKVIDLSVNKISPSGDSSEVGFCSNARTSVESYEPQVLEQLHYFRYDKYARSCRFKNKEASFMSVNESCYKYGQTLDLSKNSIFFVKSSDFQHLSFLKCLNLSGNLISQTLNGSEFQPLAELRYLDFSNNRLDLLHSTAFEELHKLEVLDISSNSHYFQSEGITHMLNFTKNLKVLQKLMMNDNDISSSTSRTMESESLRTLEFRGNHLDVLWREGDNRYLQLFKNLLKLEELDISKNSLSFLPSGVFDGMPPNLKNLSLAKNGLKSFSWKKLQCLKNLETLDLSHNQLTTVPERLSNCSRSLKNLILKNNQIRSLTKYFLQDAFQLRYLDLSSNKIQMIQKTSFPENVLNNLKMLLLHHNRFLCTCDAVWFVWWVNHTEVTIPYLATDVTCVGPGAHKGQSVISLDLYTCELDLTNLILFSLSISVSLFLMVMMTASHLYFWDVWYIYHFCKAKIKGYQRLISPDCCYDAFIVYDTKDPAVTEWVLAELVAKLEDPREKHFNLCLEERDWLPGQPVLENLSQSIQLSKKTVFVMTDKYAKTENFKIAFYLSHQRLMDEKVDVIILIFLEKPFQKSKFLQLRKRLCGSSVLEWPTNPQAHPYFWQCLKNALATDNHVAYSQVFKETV
Description: Human TLR7 agonist activity (reporter) assay. The experiment is classed as cell-based. The note with it: HEK-Blue TLR7 cells, SEAP reporter, 18 h treatment; average where assay performed multiple times; read-out: hTLR7 Agonism EC50. On the procedure: This procedure describes a method for assaying human TLR7 (hTLR7) agonist activity of the compounds disclosed in this specification.
HEK-Blue™ TLR7 cells were added to each well of a 384-well tissue-culture plate (15,000 cells per well) and incubated 16-18 h at 37° C., 5% CO2. Compounds (100 nl) were dispensed into wells containing the HEK-Blue™ TLR cells and the treated cells were incubated at 37° C., 5% CO2. After 18 h treatment ten microliters of freshly-prepared Quanti-Blue” reagent (Invivogen) was added to each well, incubated for 30 min (37° C., 5% CO2) and SEAP levels measured using an Envision plate reader (OD=620 nm). The half maximal effective concentration values (EC50; compound concentration which induced a response halfway between the assay baseline and maximum) were calculated.

The test system of experiment [2] is CD69. Description: Induction of CD69 in human whole blood. The experiment is classed as cell-based. The note with it: heparinized human whole blood, 17 hrs at 37° C.; 100% set to 1 uM resiquimod; average where assay performed multiple times; read-out: hWB CD69 EC50. On the procedure:
The induction of Type I interferon (IFN) MX-1 genes and the B-cell activation marker CD69 are downstream events that occur upon activation of the TLR7 pathway. The following is a human whole blood assay that measures their induction in response to a TLR7 agonist.
Heparinized human whole blood was harvested from human subjects and treated with test TLR7 agonist compounds at 1 mM. The blood was diluted with RPMI 1640 media and Echo was used to predot 10 nL per well giving a final concentration of 1 uM (10 nL in 10 uL of blood). After mixing on a shaker for 30 sec, the plates were covered and placed in a 37° C. chamber for o/n=17 hrs. Fixing/lysis buffer was prepared (5×→1× in H2O, warm at 37° C.; Cat #BD 558049) and kept the perm buffer (on ice) for later use.
For surface markers staining (CD69): prepared surface Abs: 0.045 ul hCD14-FITC (ThermoFisher Cat #MHCD1401)+0.6 ul hCD19-ef450 (ThermoFisher Cat #48-0198-42)+1.5 ul hCD69-PE (cat #BD555531)+0.855 ul FACS buffer. Added 3 ul/well, spin 1000 rpm for 1 min and mixed on shaker for 30 sec, put on ice for 30 mins. Stop stimulation after 30 min with 70 uL of prewarmed 1× fix/lysis buffer and use Feliex mate to resuspend (15 times, change tips for each plate) and incubate at 37 C for 10 min.
Centrifuge at 2000 rpm for 5 min aspirate with HCS plate washer, mix on shaker for 30 sec and then wash with 70 uL in dPBS and pelleted 2×s (2000 rpm for 5 min) and 50 ul wash in FACS buffer pelleted 1×s (2000 rpm for 5 min). Mix on shaker for 30 sec. For Intracellular markers staining (MX-1): Add 50 ul of BD Perm buffer III and mix on shaker for 30 sec. Incubate on ice for 30 min (in the dark). Wash with 50 uL of FACS buffer 2× (spin @2300 rpm×5 min after perm) followed by mixing on shaker for 30 sec. Resuspended in 20 ul of FACS buffer containing MX1 antibody ( )(4812)-Alexa 647: Novus Biologicals #NBP2-43704AF647) 20 ul FACS bf+0.8 ul hIgG+0.04 ul MX-1. Spin 1000 rpm for 1 min, mix on shaker for 30 se and the samples were incubated at RT in the dark for 45 min followed by washing 2×FACS buffer (spin @2300 rpm×5 min after perm). Resuspend 20 ul (35 uL total per well) of FACS buffer and cover with foil and place in 4° C. to read the following day. Plates were read on iQuePlus. The results were loaded into toolset and […] curves are generated in curve master. The y-axis 100% is set to 1 uM of resiquimod.

Turning to `CCC[C@@H](CCO)Nc1nc(N)nc2cnn(Cc3ccc(C(C)(C)N)cc3OC)c12` [Compound 102, (S)-3-((5-Amino-1-(4-(2-aminopropan-2-yl)-2-methoxybenzyl)-1H-pyrazolo[4,3-d]pyrimidin-7-yl)amino)hexan-1-ol], the figures for the half-maximal effective concentration (EC50) in experiment [1] and in experiment [2] were 7.2 nM and 1.8 nM, respectively.
